The results in this text go back to patent US20160374979A1, “Method of Treatment of Alopecia with Monoterpenoids” (CELLMID LIMITED, priority 2013, published 2016).

The assay has as its system FGF-5-dependent cell proliferation (FR-BaF3 cells expressing FGFR-1c). Nature of the assay: FR-Ba/F3 cell proliferation/viability assay in the presence of FGF-5 (CCK-8). The format is cell-based, murine. As for the experimental part: Ba/F3 is a murine interleukin-3 (IL-3)-dependent pro-B cell line. […] That is, compounds were tested for their ability to modulate proliferation of FR-Ba/F3 cells in the presence of recombinant human FGF-5 (rhFGF-5) prepared according to Maeda et al., Nishi Nihon Hifuka, 69(1): 81-86, 2007.
Briefly, a suitable plasmid expressing FGFR-1c was introduced into […] ER-Ba/F3 cells, and the cells were maintained in RPMI RPMI-1640 with 10% FBS and 1.3×10^−17 M of murine IL-3 (Sigma, St Louis, […].) containing antibiotic G418 sulfate (Promega, Medison, Wis.). The inventors compared proliferation of FR/BaF3 cells in culture medium containing IL3 or FGF-5 and a different concentration in the range from 0.005% (w/v) to 1.0% (w/v) of each test compound listed in Example 1. The FR-BaF3 cells were seeded at 5×10^4/mL cells per well in 96-well, micro-culture plates (Falcon) in RPMI-1640 culture medium containing 10% fetal bovine serum, 5 μg/mL heparin. Recombinant human FGF-5 (rhFGF-5; 1 μg/mL) was added to one group, and IL-3 (0.2 ng/mL) (Sigma) was added to another group. The test compounds were then introduced to the micro-culture plate wells. Total volume of media per well was 100 μl. Control groups lacking test compound were also prepared for each of the IL-3-supplemented and FGF-5-supplemented samples. The plates were then incubated at 37° C. in 5% CO2 for 3 days.
After 3 days, colorimetric assays were performed using a Cell Counting Kit-8 (CCK-8) (Wako) according to the manufacturer's instructions to measure cell proliferation or suppression thereof by the test compound at varying concentrations. Briefly, 10 μl (1:2 dilution) of the CCK-8 reagent was added to each micro-culture plate well after which time the plates were incubated at […] for 3 hours. Absorbance at 450 nm was then measured using a microplate reader. Cell viability and proliferation for the IL-3-supplemented and FGF-5-supplemented groups was calculated as a measure of the optical density (OD) of cells treated with a test compound relative to the OD of the respective untreated controls, excluding the OD of blank controls (media only). Dose response curves were plotted and the respective inhibitory concentrations (IC50) for the test compounds were determined.

Molecules are shown by their SMILES.

Turning to `CC1=CC(=O)C(C(C)C)CC1` (centres unmarked) [Piperitone, 3-Methyl-6-(propan-2-yl)cyclohex-2-en-1-one], under “judged from FR-BaF3 result”, the “FGF-5-inhibitory activity (in words)” value was “potent FGF-5-inhibitory active substances”. In addition, under “ratio of the IC50 with IL-3 to the IC50 with FGF-5, BR: less reproducible”, the “FGF-5 Specificity IL-1/FGF-5” value worked out at 25.
